How the values were obtained:
[1] = biological target: T1, human norepinephrine transporter (Homo sapiens, UniProt P23975); assay: hNET receptor binding ([125I]-RTI-55 radioligand binding); conditions: membranes of HEK-293 cells transfected with human norepinephrine transporter, IC50 converted to Ki by Cheng-Prusoff, read-out: hNET (Ki)
T1 construct: host or cells: HEK-293
Outline: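 Membranes from HEK-293 cells transfected with human NET. Nonspecific binding defined with 10 μM desipramine, duplicates. IC50 by nonlinear regression, converted to Ki with Cheng-Prusoff.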

[2] = biological target: T2, human seritonin transporter (Homo sapiens, UniProt P31645); assay: hSERT receptor binding ([125I]-RTI-55 radioligand binding); conditions: membranes of HEK-293 cells transfected with human seritonin transporter, IC50 converted to Ki by Cheng-Prusoff, read-out: SERT (Ki)
T2 construct: host or cells: HEK-293
T2 sequence (P31645 whole entry): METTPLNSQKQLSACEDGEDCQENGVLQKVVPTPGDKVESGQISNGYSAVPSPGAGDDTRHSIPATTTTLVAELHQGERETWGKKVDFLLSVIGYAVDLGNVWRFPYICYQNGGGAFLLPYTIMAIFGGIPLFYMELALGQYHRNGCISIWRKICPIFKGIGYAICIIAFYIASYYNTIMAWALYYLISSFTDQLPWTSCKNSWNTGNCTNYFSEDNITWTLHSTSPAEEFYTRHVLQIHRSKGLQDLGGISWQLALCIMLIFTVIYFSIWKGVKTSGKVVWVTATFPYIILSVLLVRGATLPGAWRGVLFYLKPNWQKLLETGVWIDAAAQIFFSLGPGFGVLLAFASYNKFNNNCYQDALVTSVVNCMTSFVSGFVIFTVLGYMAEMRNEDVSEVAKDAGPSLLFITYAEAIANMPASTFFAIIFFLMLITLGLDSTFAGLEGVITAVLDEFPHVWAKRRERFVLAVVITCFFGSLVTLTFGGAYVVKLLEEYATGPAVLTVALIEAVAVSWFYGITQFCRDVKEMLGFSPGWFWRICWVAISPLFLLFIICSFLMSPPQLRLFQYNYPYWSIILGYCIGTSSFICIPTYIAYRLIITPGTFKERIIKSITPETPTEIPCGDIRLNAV

T1 sequence (P23975 whole entry): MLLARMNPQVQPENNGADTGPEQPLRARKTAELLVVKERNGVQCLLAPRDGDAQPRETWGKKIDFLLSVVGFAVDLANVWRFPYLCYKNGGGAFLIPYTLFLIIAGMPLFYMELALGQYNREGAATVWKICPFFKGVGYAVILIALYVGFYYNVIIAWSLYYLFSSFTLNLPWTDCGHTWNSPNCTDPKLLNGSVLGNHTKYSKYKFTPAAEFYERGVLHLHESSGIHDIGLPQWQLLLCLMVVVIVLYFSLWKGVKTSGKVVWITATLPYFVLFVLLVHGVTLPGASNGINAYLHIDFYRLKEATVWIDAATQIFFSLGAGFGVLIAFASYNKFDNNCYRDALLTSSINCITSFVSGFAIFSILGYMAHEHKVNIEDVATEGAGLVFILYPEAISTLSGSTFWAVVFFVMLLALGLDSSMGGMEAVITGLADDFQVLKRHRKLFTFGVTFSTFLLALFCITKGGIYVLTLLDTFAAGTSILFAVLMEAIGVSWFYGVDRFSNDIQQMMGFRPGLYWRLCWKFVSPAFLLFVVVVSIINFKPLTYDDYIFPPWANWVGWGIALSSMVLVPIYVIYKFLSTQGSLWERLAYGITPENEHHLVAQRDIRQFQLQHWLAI

Row | Ki [1] | Ki [2] | melting point | Structure (SMILES)
1 | 0.0052 µM | 6.26 µM | 156 to 158 °C | Oc1ccccc1O[C@@H](c1ccccc1)[C@@H]1CNCCO1 [Example 50, (2S,3S)-2-(Morpholin-2-yl-phenyl-methoxy)-phenol]
2 | 0.008 µM | 1.26 µM |  | Fc1cccc(Br)c1O[C@@H](c1ccccn1)[C@@H]1CNCCO1 [Example 186, (2S)-2-[(S)-(2-bromo-6-fluorophenoxy)(pyridin-2-yl)methyl]morpholine]
3 | 0.015 µM | 0.224 µM |  | COc1cccc([C@H](Oc2ccccc2Br)[C@@H]2CNCCO2)n1 [Example 187, (2S)-2-[(S)-(2-bromophenoxy)(6-methoxypyridin-2-yl)methyl]morpholine]
4 | 0.014 µM | 2.21 µM |  | COc1cccc([C@H](Oc2c(F)cccc2OC)[C@@H]2CNCCO2)n1 [Example 188, (2S)-2-[(S)-(2-fluoro-6-methoxyphenoxy) (6-methoxypyridin-2-yl)methyl]morpholine]
5 | 0.147 µM | 5.22 µM |  | CCOc1ncccc1OC(C(C)C)[C@@H]1CNCCO1 (stereo partly drawn) [Example 189, (2S)-2-{1-[(2-ethoxypyridin-3-yl)oxy]-2-methylpropyl}morpholine]
6 | 0.006 µM | 4.34 µM |  | Cc1coc(C(Oc2ccccc2C2CC2)[C@@H]2CNCCO2)n1 (stereo partly drawn) [Example 190, (2S)-2-[(2-cyclopropylphenoxy)(4-methyl-1,3-oxazol-2-yl)methyl]morpholine]
7 | 0.006 µM | 5.83 µM |  | CCC[C@H](Oc1cccnc1OCC)[C@@H]1CNCCO1 [Example 191, (2S)-2-{(1S)-1-[(2-ethoxypyridin-3-yl)oxy]butyl}morpholine]
8 | 0.038 µM | 1.88 µM |  | c1ccc([C@H](Oc2cccnc2OCC2CC2)[C@@H]2CNCCO2)cc1 [Example 192, (2S)-2-[(S)-{[2-(cyclopropylmethoxy)pyridin-3-yl]oxy}(phenyl)methyl]morpholine]
9 | 0.003 µM | 0.707 µM |  | Fc1cccc(C(F)(F)F)c1O[C@@H](c1ccccc1)[C@@H]1CNCCO1 [Example 193, (2S)-2-[(S)-[2-fluoro-6-(trifluoromethyl)phenoxy](phenyl)methyl]morpholine]
10 | 0.009 µM | 2.56 µM |  | Fc1cccc(OC(F)(F)F)c1O[C@@H](c1ccccc1)[C@@H]1CNCCO1 [Example 194, (2S)-2-[(S)-[2-fluoro-6-(trifluoromethoxy)phenoxy](phenyl)methyl]morpholine]
11 | 0.018 µM | 0.811 µM |  | CCOc1ncccc1O[C@@H](Cc1ccccc1)[C@@H]1CNCCO1 [Example 197, (2S)-2-{(1S)-1-[(2-ethoxypyridin-3-yl)oxy]-2-phenylethyl}morpholine]
12 | 0.03 µM | 0.062 µM |  | CSc1cc(F)ccc1O[C@@H](c1ccccc1)[C@@H]1CNCCO1 [Example 198, (2S)-2-[(S)-[4-fluoro-2-(methylthio)phenoxy](phenyl)methyl]morpholine]
13 | 0.008 µM | 2.94 µM |  | COc1cccc([C@H](Oc2c(F)cccc2F)[C@@H]2CNCCO2)n1 [Example 199, (2S)-2-[(S)-(2,6-difluorophenoxy)(6-methoxypyridin-2-yl)methyl]morpholine]
14 | 9.55 µM | ≥ 10 µM |  | c1cnc(OC[C@H]2CNCCO2)c(OC[C@H]2CNCCO2)n1 [Example 200, (2R,2′R)-2,2′-[pyrazine-2,3-diylbis(oxymethylene)]dimorpholine]
